The results in this text go back to ChEMBL document CHEMBL1201862, “PubChem BioAssay data set” (2004).

A short description of experiment [1]: viability of uninfected HEp-2 cells – cell-based, HTS, cytotoxicity control for RSV inhibitor project, dose response (AID 2410). Conditions: human respiratory syncytial virus. It is filed as functional.
Experiment [2] can be described thus: Luminescence Cell-Based Dose Retest to Confirm Inhibitors of Cancer Stem Cells. [Related pubchem assays (depositor defined):AID2717, AID2721]. It is filed as functional, Homo sapiens. Conditions: Homo sapiens.
The target of experiment [3] is T1, Heat shock factor protein 1 (Mus musculus, UniProt P38532).
T1 sequence (P38532 whole entry): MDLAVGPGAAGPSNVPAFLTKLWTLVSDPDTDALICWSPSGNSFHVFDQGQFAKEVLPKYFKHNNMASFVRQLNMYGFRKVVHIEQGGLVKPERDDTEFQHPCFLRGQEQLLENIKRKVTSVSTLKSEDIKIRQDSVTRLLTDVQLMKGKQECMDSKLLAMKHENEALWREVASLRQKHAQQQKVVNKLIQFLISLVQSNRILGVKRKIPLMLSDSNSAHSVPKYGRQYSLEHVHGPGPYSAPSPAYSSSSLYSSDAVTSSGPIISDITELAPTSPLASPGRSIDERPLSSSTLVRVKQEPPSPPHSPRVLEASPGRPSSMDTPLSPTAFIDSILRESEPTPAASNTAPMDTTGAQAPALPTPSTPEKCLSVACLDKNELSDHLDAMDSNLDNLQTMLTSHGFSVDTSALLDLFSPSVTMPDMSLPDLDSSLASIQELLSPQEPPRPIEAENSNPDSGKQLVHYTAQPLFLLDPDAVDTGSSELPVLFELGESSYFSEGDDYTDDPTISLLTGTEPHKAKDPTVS
As to the kind of experiment: enhancement of HSF1-driven luciferase signal – cell-based, NIH3T3, luminescence, dose retest, confirmation (AID 435004).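 Also: stress induced by proteasome inhibitor MG132 added 30 min after compound; luciferase reporter driven by HSF1 response element in NIH3T3 cells; actives raise luminescence as potentiators of the MG132 stress response.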 Type of experiment: functional.

For experiment [4], the system named is Vero. In words: cells. It is filed as functional. As to conditions: Chlorocebus sabaeus.
Experiment [5] has as its target Nonstructural protein 1 (Influenza A virus, UniProt Q194T2). Type of experiment: functional, Influenza A virus (A/California/07/2009(H1N1)).
Experiment [6] addresses T2, Leucine aminopeptidase (Plasmodium falciparum 3D7, UniProt Q8IL11).
T2 sequence (Q8IL11 whole entry): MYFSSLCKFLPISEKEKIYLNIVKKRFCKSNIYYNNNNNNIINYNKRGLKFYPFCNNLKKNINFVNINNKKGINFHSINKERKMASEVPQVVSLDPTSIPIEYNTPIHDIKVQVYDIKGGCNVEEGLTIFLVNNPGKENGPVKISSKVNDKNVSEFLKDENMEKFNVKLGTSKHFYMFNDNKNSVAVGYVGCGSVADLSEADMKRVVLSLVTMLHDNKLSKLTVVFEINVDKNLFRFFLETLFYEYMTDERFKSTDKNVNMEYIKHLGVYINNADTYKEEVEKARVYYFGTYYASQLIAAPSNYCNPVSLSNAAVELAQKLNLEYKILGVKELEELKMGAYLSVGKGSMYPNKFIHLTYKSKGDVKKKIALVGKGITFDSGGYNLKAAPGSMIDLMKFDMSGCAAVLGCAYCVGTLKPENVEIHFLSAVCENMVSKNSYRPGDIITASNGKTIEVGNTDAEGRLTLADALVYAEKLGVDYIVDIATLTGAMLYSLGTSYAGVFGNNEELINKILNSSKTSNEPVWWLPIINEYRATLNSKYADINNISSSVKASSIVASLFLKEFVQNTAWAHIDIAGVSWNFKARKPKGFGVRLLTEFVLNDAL
As to the kind of experiment: P. falciparum M17LAP inhibitors, primary screen, biochemical, fluorogenic H-Leu-NHMec substrate, 1536-well (AID 1619). It is filed as functional.

In experiment [7] the target is Cytochrome P450 2D6 (Homo sapiens, UniProt P10635).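 Also: CYP2D6 member of a cytochrome P450 panel assay.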
Experiment [8] has as its target T3, Cytochrome P450 1A2 (Homo sapiens, UniProt P05177).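 Also: PubChem cytochrome P450 panel assay, CYP1A2 panel member.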
T3 sequence (P05177 whole entry): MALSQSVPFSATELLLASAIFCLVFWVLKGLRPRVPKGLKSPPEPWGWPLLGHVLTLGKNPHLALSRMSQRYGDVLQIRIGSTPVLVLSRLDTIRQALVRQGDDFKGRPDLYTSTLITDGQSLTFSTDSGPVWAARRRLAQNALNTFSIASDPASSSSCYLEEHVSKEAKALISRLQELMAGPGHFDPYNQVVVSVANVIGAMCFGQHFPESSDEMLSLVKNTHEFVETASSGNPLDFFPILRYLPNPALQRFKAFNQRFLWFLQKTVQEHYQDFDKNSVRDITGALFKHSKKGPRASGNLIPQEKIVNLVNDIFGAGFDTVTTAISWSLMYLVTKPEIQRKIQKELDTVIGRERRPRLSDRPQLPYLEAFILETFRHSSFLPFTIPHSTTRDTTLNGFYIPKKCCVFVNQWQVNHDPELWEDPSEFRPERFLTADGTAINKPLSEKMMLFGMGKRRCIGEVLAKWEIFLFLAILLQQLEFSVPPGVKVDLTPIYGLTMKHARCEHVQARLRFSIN

Experiment [9] deals with Cytochrome P450 2C9 (Homo sapiens, UniProt P11712).
Experiment [10] deals with Cytochrome P450 3A4 (Homo sapiens, UniProt P08684).
Experiment [11] deals with T4, Replicative DNA helicase DnaB (Mycobacterium tuberculosis, UniProt P9WMR3).
T4 sequence (P9WMR3 whole entry): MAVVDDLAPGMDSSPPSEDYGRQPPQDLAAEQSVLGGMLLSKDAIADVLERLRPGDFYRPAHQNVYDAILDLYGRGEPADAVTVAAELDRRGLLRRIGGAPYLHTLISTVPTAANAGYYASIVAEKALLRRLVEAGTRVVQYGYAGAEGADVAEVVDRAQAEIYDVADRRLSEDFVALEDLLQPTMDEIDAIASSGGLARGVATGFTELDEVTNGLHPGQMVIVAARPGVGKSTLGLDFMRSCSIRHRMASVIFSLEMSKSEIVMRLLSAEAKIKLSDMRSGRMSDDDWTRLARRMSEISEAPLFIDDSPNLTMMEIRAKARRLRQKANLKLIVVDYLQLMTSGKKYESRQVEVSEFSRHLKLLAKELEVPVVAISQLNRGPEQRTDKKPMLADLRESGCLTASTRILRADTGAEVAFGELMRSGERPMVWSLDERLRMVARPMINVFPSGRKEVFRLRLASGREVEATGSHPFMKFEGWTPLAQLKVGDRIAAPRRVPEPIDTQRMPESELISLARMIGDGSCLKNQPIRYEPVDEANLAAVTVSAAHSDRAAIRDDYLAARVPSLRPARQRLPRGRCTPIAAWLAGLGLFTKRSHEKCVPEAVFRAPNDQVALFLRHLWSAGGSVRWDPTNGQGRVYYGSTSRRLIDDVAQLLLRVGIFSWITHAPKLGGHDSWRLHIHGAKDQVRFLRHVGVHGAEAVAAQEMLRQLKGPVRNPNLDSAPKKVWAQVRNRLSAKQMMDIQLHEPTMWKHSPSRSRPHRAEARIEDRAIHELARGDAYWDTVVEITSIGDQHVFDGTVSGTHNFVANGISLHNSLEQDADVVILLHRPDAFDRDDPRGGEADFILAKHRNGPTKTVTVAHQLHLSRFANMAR
As to the kind of experiment: DnaB intein splicing inhibitors, dose response, biochemical, cell-free fluorescence (AID 449749). Type of experiment: functional.

Experiment [12] addresses T5, Protein RecA (Mycobacterium tuberculosis, UniProt P9WHJ3).
T5 sequence (P9WHJ3 whole entry): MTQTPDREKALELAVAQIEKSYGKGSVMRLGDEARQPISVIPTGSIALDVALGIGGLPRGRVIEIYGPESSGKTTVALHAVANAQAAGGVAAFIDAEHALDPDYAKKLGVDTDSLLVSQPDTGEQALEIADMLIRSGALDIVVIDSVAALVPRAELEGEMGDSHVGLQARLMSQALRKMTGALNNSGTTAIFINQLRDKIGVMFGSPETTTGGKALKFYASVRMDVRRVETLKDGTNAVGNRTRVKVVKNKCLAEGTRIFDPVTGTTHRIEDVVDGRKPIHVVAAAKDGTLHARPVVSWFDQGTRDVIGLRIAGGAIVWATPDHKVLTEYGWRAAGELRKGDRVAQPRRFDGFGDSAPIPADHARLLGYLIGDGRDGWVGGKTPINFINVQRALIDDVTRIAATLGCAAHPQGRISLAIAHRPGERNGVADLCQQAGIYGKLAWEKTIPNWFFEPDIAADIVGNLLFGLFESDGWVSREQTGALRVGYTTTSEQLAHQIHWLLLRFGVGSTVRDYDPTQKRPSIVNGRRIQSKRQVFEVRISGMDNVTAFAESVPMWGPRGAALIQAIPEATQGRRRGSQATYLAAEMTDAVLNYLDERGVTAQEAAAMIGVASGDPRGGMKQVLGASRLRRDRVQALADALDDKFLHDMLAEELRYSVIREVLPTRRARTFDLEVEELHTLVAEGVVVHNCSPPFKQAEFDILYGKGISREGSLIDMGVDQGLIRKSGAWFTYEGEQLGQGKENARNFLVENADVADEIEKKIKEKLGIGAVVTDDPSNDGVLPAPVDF
As to the kind of experiment: Fluorescence Cell-Free Homogeneous Dose Retest to Identify Inhibitors of RecA-Intein Splicing Activity. [Related pubchem assays (depositor defined):AID2097, AID2223, AID489010, AID492950]. Type of experiment: functional.

Experiment [13] concerns the target T6, Histone-lysine N-methyltransferase NSD2 (Homo sapiens, UniProt O96028).
T6 sequence (O96028 whole entry): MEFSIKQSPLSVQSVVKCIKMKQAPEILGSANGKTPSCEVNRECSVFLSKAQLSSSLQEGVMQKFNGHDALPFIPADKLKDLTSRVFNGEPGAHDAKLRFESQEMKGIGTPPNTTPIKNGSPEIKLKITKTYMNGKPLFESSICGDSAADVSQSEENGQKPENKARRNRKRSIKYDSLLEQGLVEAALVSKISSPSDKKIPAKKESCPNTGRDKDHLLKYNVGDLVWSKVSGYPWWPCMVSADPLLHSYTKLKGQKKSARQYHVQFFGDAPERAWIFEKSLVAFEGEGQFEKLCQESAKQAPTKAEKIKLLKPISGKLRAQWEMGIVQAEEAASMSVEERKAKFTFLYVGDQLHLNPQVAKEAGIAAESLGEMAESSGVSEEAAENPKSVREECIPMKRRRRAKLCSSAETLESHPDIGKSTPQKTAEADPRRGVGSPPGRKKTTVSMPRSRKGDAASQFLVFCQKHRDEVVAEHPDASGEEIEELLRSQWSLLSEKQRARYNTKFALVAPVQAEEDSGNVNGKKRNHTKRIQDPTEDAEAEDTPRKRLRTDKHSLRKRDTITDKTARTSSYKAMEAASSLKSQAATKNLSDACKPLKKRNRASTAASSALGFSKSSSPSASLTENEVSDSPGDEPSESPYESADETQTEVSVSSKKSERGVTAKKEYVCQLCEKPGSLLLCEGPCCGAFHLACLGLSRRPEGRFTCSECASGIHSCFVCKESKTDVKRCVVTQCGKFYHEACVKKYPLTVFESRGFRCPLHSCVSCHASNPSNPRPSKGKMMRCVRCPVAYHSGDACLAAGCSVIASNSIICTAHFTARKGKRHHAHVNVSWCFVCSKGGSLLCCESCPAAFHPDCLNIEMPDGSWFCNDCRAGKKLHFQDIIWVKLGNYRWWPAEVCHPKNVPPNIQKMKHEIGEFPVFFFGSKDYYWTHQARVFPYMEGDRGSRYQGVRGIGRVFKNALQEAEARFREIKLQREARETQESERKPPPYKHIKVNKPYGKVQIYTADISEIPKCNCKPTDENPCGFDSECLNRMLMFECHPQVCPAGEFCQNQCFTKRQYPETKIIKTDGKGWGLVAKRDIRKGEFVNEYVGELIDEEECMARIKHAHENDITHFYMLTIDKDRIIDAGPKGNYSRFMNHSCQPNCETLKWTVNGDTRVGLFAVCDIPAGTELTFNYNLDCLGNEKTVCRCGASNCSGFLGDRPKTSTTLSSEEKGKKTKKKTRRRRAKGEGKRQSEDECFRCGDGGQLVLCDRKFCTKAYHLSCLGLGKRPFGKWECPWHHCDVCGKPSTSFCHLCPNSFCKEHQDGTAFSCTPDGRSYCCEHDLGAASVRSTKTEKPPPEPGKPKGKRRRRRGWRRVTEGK
It is filed as biochemical.

Calls of active or inactive are those of the source.

Nonstructural protein 1, sequence (Q194T2 whole entry): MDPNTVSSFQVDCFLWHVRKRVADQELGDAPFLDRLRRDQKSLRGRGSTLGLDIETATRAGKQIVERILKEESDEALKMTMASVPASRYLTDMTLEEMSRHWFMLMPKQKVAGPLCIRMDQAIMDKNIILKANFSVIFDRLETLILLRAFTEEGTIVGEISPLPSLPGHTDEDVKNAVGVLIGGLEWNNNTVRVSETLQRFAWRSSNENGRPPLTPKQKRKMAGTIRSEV
Cytochrome P450 2C9, sequence (P11712 whole entry): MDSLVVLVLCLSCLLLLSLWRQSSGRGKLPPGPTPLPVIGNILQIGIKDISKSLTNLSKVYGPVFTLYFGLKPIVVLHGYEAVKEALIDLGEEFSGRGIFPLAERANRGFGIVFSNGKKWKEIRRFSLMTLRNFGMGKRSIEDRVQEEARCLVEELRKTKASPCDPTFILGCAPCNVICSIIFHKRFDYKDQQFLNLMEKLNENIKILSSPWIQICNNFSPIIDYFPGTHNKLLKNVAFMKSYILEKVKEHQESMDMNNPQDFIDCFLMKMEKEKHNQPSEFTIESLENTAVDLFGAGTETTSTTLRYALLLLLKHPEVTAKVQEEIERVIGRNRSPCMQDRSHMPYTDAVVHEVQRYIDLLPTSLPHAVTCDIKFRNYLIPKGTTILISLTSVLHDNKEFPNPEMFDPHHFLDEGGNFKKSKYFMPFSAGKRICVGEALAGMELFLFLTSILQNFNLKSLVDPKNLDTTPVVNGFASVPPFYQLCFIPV
Cytochrome P450 2D6, sequence (P10635 whole entry): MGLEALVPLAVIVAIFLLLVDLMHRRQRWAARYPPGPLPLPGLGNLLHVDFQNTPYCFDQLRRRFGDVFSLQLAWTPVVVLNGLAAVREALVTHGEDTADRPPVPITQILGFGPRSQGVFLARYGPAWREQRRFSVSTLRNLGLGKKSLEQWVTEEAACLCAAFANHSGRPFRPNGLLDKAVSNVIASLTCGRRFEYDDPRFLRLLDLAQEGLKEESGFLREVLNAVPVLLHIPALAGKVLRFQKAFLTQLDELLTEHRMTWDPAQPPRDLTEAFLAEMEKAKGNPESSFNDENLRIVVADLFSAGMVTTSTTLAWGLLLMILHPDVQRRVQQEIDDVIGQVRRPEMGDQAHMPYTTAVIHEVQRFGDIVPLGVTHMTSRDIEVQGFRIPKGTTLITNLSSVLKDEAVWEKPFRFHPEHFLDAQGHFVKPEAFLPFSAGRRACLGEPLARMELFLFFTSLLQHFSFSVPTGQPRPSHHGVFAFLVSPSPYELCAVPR
Cytochrome P450 3A4, sequence (P08684 whole entry): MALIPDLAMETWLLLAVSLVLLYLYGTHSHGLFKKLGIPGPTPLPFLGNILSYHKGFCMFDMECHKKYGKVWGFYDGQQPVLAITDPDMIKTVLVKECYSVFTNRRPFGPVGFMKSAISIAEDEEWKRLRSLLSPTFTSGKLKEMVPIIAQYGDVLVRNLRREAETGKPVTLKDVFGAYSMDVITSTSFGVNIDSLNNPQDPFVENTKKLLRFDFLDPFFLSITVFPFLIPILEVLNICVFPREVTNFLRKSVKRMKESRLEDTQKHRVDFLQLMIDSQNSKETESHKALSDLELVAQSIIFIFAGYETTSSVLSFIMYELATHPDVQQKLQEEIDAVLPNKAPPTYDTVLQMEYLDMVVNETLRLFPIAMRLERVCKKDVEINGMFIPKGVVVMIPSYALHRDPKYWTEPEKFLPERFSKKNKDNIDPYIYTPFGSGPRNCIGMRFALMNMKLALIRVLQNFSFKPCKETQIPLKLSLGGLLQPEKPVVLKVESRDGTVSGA

`COc1ccc(C(=O)/C=C/c2ccc(OC)c(Cn3nnc4ccccc43)c2)cc1`: the CC50 in experiment [1] was 12.1 µM (active); in experiment [4], 15.2 µM (active). Moreover, the AC50 in [2] was 6.14 µM (active). The EC50 in experiment [3] was 14.1 µM (active).
As to `Cc1ccc(N=Nc2ccc3ccccc3c2O)cc1`, in experiment [5], the IC50 is 5.83 µM (active).
On to `C=C(C(=O)c1ccccc1)C(c1ccccc1)C(C)C(=O)c1ccccc1` (stereo not given), for which, in experiment [4], the CC50 was 17.8 µM (active).
Regarding `CC(C)Oc1ccccc1/C=N/Nc1ccccc1[N+](=O)[O-]`, the IC50 in experiment [5] is 31.2 µM (active).
As to `O=C(COc1ccccc1)NNC(=S)NC(=O)c1ccccc1`, the IC50 in experiment [6] was 9.22 µM (active). In experiment [4], the CC50 is > 25 µM (active).
In the case of `O=C(CCCn1c(=S)[nH]c2cc3c(cc2c1=O)OCO3)N1CCN(c2ccccc2)CC1`, the concentration at half-maximal activity (AC50) in experiment [7] is 1.26 µM (inconclusive); in experiment [8] it was 4.47 µM (inconclusive); in experiment [9], 0.0891 µM (inconclusive).
Regarding `COC(=O)c1[nH]c2cc(OC)ccc2c1NC(=O)c1nonc1C`, the values for the AC50 in experiment [8], in experiment [10] and in [9] were 0.794 µM (inconclusive), 7.08 µM (inconclusive) and 1.26 µM (inconclusive), respectively.
Turning to `COc1ccc(OC)c(NC2c3ccccc3C(=O)N2Cc2ccc3c(c2)OCO3)c1` (stereo not given), the IC50 in [5] is 57.5 µM (active).
With `COc1cc(NC(C)CCCN)c2ncccc2c1Oc1ccccc1` (stereo not given), the values for the AC50 in experiment [11] and in experiment [13] were > 380 µM (inactive) and 0.466 µM (active), respectively. Besides, the EC50 in experiment [12] is 7.94 µM (active).
`O=C1N(c2ccccc2C(F)(F)F)O[C@@]1(c1ccccc1)C1CCCC1`: the CC50 in experiment [4] is 21.6 µM (active).

Broadly, the CC50 is the concentration at which the toxic effect on the cells reaches its halfway point. In general, AC50 refers to the midpoint of the concentration-response curve, whichever way the signal moves. Broadly, the EC50 is the midpoint of the concentration-response curve. The IC50 is the concentration needed to halve the response being measured.
